Data from patent US20090181948A1, “DIAMINE DERIVATIVE” (KYOWA HAKKO KOGYO CO., LTD., priority 2005, published 2009).

Experiments:
[1] = target: T1, histamine H3 receptor (Rattus norvegicus, UniProt Q9QYN8); experiment: Histamine H3 receptor binding assay ([3H]-Nα-methylhistamine binding to rat striatum homogenate); details: for inhibition at 1 µM: 1 μmol/L test compound, [3H]-Nα-methylhistamine 1 nmol/L, striata of Sprague-Dawley male rats, 25° C., 1 hour, read-out: Inhibition ratio of [3H]-Nα-methylhistamine binding
T1 construct: from tissue; host or cells: rat striatum (Sprague-Dawley, male, 6 weeks), membrane homogenate
Method in brief: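 Rat striatum membranes (20 μg protein) incubated with [3H]-Nα-methylhistamine 1 nmol/L in 50 mmol/L Tris/HCl pH 7.4, 5 mmol/L EDTA, 1 hour at 25° C; bound ligand by filtration and scintillation counting. Nonspecific binding defined with 10 μmol/L thioperamide; % inhibition reported at 1 μmol/L compound.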

T1 sequence (Q9QYN8 whole entry): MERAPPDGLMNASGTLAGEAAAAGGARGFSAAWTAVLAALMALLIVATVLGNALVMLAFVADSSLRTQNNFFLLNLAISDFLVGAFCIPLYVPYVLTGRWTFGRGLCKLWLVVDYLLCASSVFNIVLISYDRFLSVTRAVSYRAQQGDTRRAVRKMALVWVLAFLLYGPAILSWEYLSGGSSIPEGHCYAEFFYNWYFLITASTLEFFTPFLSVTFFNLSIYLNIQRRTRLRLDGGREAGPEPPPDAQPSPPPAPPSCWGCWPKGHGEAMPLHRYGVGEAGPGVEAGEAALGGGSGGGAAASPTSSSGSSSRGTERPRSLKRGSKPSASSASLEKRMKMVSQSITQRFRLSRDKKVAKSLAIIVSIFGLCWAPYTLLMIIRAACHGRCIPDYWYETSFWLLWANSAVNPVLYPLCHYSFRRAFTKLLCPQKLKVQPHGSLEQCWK

inhibition at 1 µM [1] [%] | melting point [°C] | Structure (SMILES) | Kd ([1]; rat striatum homogenate, read-out: dissociation constant Kd of [3H]-Nα-methylhistamine binding to the rat H3 receptor) [pM]
≥ 80 | 121 to 123 | CN1CCCC1CCN1CCN(CCC2CCCN2C)C1=C(C#N)C#N (stereo not drawn) [Compound 4, {1,3-Bis[2-(1-methylpyrrolidin-2-yl)ethyl]imidazolidin-2-ylidene}malononitrile] | 
≥ 80 | 74 to 75 | C[C@@H]1CCCN1CCCN1CCN(CCN2CCC[C@H]2C)C1=C(C#N)C#N [Compound 55, {1-[2-((R)-2-methylpyrrolidin-1-yl)ethyl]-3-[3-((R)-2-methylpyrrolidin-1-yl)propyl]imidazolidin-2-ylidene}malononitrile] | 
≥ 80 | 63 to 64 | N#CC(C#N)=C1N(CCCN2CCCCC2)CCN1CCN1CCCC1 [Compound 59, {1-(3-Piperidinopropyl)-3-[2-(pyrrolidin-1-yl)ethyl]imidazolidin-2-ylidene}malononitrile] | 
≥ 80 | 70 to 71 | N#CC(C#N)=C1N(CCCN2CCCC2)CCN1CCN1CCCC1 [Compound 60, {1-[2-(Pyrrolidin-1-yl)ethyl]-3-[3-(pyrrolidin-1-yl)propyl]imidazolidin-2-ylidene}malononitrile] | 
≥ 80 | 95 to 96 | CC1CCCN1CCCN1CCN(CCN2CCCC2)C1=C(C#N)C#N (stereo not drawn) [Compound 61, {1-[3-(2-Methylpyrrolidin-1-yl)propyl]-3-[2-(pyrrolidin-1-yl)ethyl]imidazolidin-2-ylidene}malononitrile] | 
≥ 80 | 87 to 89 | C[C@@H]1CCCN1CCCN1CCN(CCCN2CCC[C@@H]2C)C1=C(C#N)C#N [Compound 117] | 
≥ 80 | 79 to 80 | N#CC(C#N)=C1N(CCCN2CCC[C@@H]2CO)CCN1CCCN1CCC[C@@H]1CO [Compound 118, {1,3-Bis[3-((R)-2-hydroxymethylpyrrolidin-1-yl)propyl]imidazolidin-2-ylidene}malononitrile] | 
≥ 80 | 99 to 102 | CC1CCCN1CCCN1CCN(CCCN2CCC(F)(F)C2)C1=C(C#N)C#N (stereo not drawn) [Compound 120, {1-[3-(3,3-Difluoropyrrolidin-1-yl)propyl]-3-[3-(2-methylpyrrolidin-1-yl)propyl]imidazolidin-2-ylidene}malononitrile] | 
 | 105 to 107 | N#CCS(=O)(=O)C=C1N(CCCN2CCCCC2)CCN1CCCN1CCCCC1 [Compound 136, [1,3-Bis(3-piperidinopropyl)imidazolidin-2-ylidene]methanesulfonylacetonitrile] | 
 | 91 to 93 | C[C@H]1CCCN1CCCN1CCN(CCCN2CCC[C@@H]2C)C1=CS(=O)(=O)CC#N [Compound 138, {1,3-Bis[3-((S)-2-methylpyrrolidin-1-yl)propyl]imidazolidin-2-ylidene}methanesulfonylacetonitrile] | 
 | 156 to 158 | CN(CCN1CCCCC1)C(=C(C#N)C#N)N1CCC(N(C)c2ccccc2)CC1 [Compound 146, {[4-(N-methyl-N-phenylamino)piperidino][N-methyl-N-(2-piperidinoethyl)amino]methylene}malononitrile] | 
≥ 80 | 78 to 80 | N#CC(C#N)=C(NCCN1CCCCC1)N1CCC(CN2CCCCC2)CC1 [Compound 147, [(2-Piperidinoethylamino)(4-piperidinomethylpiperidino)methylene]malononitrile] | 
≥ 80 | 114 to 116 | N#CC(C#N)=C(NCCCN1CCCCC1)N1CCC(N2CCCC2)CC1 [Compound 158, {(3-Piperidinopropylamino)[4-(pyrrolidin-1-yl)piperidino]methylene}malononitrile] | 
≥ 80 | 94 to 96 | CCN(CCCN1CCCCC1)C(=C(C#N)C#N)N1CCC(N2CCCCC2)CC1 [Compound 162, {[N-ethyl-N-(3-piperidinopropyl)amino](4-piperidinopiperidino)methylene}malononitrile] | 
≥ 80 | 83 to 84 | CC1CCCN1C1CCN(C(NCCCN2CCCCC2)=C(C#N)C#N)CC1 (stereo not drawn) [Compound 163, {[4-(2-Methylpyrrolidin-1-yl)piperidino](3-piperidinopropylamino)methylene}malononitrile] | 
 | 122 to 124 | N#CC(C#N)=C(NCCCN1CCCCC1)N1CCC(N2CCOCC2)CC1 [Compound 164, [(3-Piperidinopropylamino) (4-morpholinopiperidino)methylene]malononitrile] | 
≥ 80 | 197 to 198 | CC(C)N1CCC(N(C)C(=C(C#N)C#N)N2CCC(CN3CCCCC3)CC2)CC1 [Compound 179, {[N-(1-isopropylpiperidin-4-yl)-N-methylamino](4-piperidinomethylpiperidino)methylene}malononitrile] | 
 | 136 to 137 | N#CC(C#N)=C(NCCCN1CCCCC1)N1CCN(C2CCCCC2)CC1 [Compound 183, [(4-Cyclohexylpiperazin-1-yl)(3-piperidinopropylamino)methylene]malononitrile] | 
 | 127 to 128 | N#CC(C#N)=C1N(CCN2CCCCC2)c2ccccc2N1CCN1CCCCC1 [Compound 192, [1,3-Bis-(2-piperidinoethyl)benzimidazolidin-2-ylidene]malononitrile] | 
≥ 80 | 74 to 76 | C[C@@H]1CCCN1CCCN1CCN(CCN2CCCCC2)C1=C(C#N)C#N [Compound 194, {1-[3-((R)-2-methylpyrrolidin-1-yl)propyl]-3-(2-piperidinoethyl)imidazolidin-2-ylidene}malononitrile] | 
≥ 80 | 70 to 71 | C[C@H]1CCCN1CCCN1CCN(CCN2CCCCC2)C1=C(C#N)C#N [Compound 195, {1-[3-((S)-2-methylpyrrolidin-1-yl)propyl]-3-(2-piperidinoethyl)imidazolidin-2-ylidene}malononitrile] | 
≥ 80 | 94 to 95 | C[C@@H]1CCCN1CCN1CCN(CCCN2CCC[C@@H]2C)C1=C(C#N)C#N [Compound 196, {3-[2-((R)-2-methylpyrrolidin-1-yl)ethyl]-1-[3-((S)-2-methylpyrrolidin-1-yl)propyl]imidazolidin-2-ylidene}malononitrile] | 
 | 103 to 105 | N#CC(C#N)=C1N(CCCN2CCCCC2)CCN1C1CCN(CC(F)(F)F)CC1 [Compound 225, {1-(3-Piperidinopropyl)-3-[1-(2,2,2-trifluoroethyl)piperidin-4-yl]imidazolidin-2-ylidene}malononitrile] | 
 | 147 to 148 | N#CC(C#N)=C(NC1CCN(Cc2ccccc2)CC1)NC1CCN(Cc2ccccc2)CC1 [Compound 239, [Bis(1-benzylpiperidin-4-ylamino)methylene]malononitrile] | 
≥ 80 |  | C[C@@H]1CCCN1CCCN1CCN(CCCN2CCC[C@@H]2C)C1=C(C#N)S(=O)(=O)c1ccccc1 [Compound 246, {1-[3-((S)-2-methylpyrrolidin-1-yl)propyl]-3-[3-((R)-2-methylpyrrolidin-1-yl)propyl]imidazolidin-2-ylidene}benzenesulfonylacetonitrile] | 
 |  | CNCCc1cnc[nH]1 [[^3H]-N^α-methylhistamine, reference compound] | 570 ± 40
